Assay results published in patent US20250255848A1, “SUBSTITUTED 6,7-DIHYDRO-5H-BENZO[7]ANNULENE DERIVATIVES, PROCESSES FOR THEIR PREPARATION AND THERAPEUTIC USES THEREOF” (SANOFI, priority 2022, published 2025).

Molecular target: ERα (Homo sapiens (Human), UniProt P03372)
Assay: Estrogen receptor degradation activity: breast cancer cell ERα in cell western assay
Type: cell-based
Conditions: MCF7 cells; for % Degradation At 0.3 μM: 4 hours, normalised to fulvestrant 0.1 μM and DMSO; for IC50: 4 hours post compound addition, concentration which degrades 50% of the estrogen receptor
How it was run: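 MCF7 cells in phenol-red-free medium with 5% charcoal-stripped FBS, treated 4 h with 9-point 1:5 dilutions (0.3-0.0000018 μM final). ERα measured by in-cell western (anti-ER antibody, Alexa 488), normalized to Syto-64 DNA stain; % decrease scaled DMSO to 0.1 μM fulvestrant, IC50 in nM.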

Sequence of ERα (P03372 whole entry): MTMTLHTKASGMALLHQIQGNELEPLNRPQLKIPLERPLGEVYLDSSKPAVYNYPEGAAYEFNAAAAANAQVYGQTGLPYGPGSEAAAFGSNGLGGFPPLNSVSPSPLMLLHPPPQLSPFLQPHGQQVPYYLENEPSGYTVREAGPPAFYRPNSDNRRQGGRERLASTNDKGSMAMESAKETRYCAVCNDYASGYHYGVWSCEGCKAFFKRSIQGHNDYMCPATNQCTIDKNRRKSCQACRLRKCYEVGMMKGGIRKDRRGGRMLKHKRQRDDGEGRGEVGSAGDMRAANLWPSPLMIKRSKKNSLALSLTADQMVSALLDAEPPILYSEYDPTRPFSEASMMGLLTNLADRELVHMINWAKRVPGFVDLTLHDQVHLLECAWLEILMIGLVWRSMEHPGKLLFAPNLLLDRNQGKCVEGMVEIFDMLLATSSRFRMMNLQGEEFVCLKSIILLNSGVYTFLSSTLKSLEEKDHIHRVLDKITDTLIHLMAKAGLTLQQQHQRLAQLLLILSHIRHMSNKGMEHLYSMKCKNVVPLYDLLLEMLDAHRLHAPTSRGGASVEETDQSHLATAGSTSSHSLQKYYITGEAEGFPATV

COc1cccc(C2=C(c3ccc(C=C4CN(CCCF)C4)cc3)c3ccc(C(=O)O)cc3CCC2)c1C(F)(F)F [Compound 52, 9-(4-((1-(3-fluoropropyl)azetidin-3-ylidene)methyl)phenyl)-8-(3-methoxy-2-(trifluoromethyl)phenyl)-6,7-dihydro-5H-benzo[7]annulene-3-carboxylic acid]
% Degradation At 0.3 μM: 94% | IC50: 0.4 nM

Cc1cc(C2=C(c3ccc(C=C4CN(CCCF)C4)cc3)c3ccc(C(=O)O)cc3CCC2)ccc1C(F)(F)F [Compound 53, 9-(4-((1-(3-fluoropropyl)azetidin-3-ylidene)methyl)phenyl)-8-(3-methyl-4-(trifluoromethyl)phenyl)-6,7-dihydro-5H-benzo[7]annulene-3-carboxylic acid]
% Degradation At 0.3 μM: 91% | IC50: 1.2 nM

O=C(O)c1ccc2c(c1)CCCC(c1ccc(C(F)F)cc1OC(F)(F)F)=C2c1ccc(C=C2CN(CCCF)C2)cc1 [Compound 54, 8-(4-(difluoromethyl)-2-(trifluoromethoxy)phenyl)-9-(4-((1-(3-fluoropropyl)azetidin-3-ylidene)methyl)phenyl)-6,7-dihydro-5H-benzo[7]annulene-3-carboxylic acid]
% Degradation At 0.3 μM: 95% | IC50: 0.5 nM

O=C(O)c1ccc2c(c1)CCCC(c1ccc(C(F)F)cc1)=C2c1ccc(C=C2CN(CCCF)C2)cc1 [Compound 55, 8-(4-(difluoromethyl)phenyl)-9-(4-((1-(3-fluoropropyl)azetidin-3-ylidene)methyl)phenyl)-6,7-dihydro-5H-benzo[7]annulene-3-carboxylic acid]
% Degradation At 0.3 μM: 94% | IC50: 0.6 nM

C[C@H]1CC[C@H](C2=C(c3ccc(C=C4CN(CCCF)C4)cc3)c3ccc(C(=O)O)cc3CCC2)CC1 [Compound 56, 9-(4-((1-(3-fluoropropyl)azetidin-3-ylidene)methyl)phenyl)-8-(trans-4-methylcyclohexyl)-6,7-dihydro-5H-benzo[7]annulene-3-carboxylic acid]
% Degradation At 0.3 μM: 92% | IC50: 0.7 nM

Cc1ccc(C(F)F)c(C2=C(c3ccc(C=C4CN(CCCF)C4)cc3)c3ccc(C(=O)O)cc3CCC2)c1 [Compound 57, 8-(2-(difluoromethyl)-5-methylphenyl)-9-(4-((1-(3-fluoropropyl)azetidin-3-ylidene)methyl)phenyl)-6,7-dihydro-5H-benzo[7]annulene-3-carboxylic acid]
% Degradation At 0.3 μM: 93% | IC50: 0.7 nM

O=C(O)c1ccc2c(c1)CCCC(c1ccccc1C(F)F)=C2c1ccc(C=C2CN(CCCF)C2)cc1 [Compound 58, 8-(2-(difluoromethyl)phenyl)-9-(4-((1-(3-fluoropropyl)azetidin-3-ylidene)methyl)phenyl)-6,7-dihydro-5H-benzo[7]annulene-3-carboxylic acid]
% Degradation At 0.3 μM: 93% | IC50: 0.2 nM

COc1cc(C(F)(F)F)ccc1C1=C(c2ccc(C=C3CN(CCCF)C3)cc2)c2ccc(C(=O)O)cc2CCC1 [Compound 59, 9-(4-((1-(3-fluoropropyl)azetidin-3-ylidene)methyl)phenyl)-8-(2-methoxy-4-(trifluoromethyl)phenyl)-6,7-dihydro-5H-benzo[7]annulene-3-carboxylic acid]
% Degradation At 0.3 μM: 92% | IC50: 0.9 nM

COc1cccc(C2=C(c3ccc(C=C4CN(CCCF)C4)cc3)c3ccc(C(=O)O)cc3CCC2)c1C(F)F [Compound 60, 8-(2-(difluoromethyl)-3-methoxyphenyl)-9-(4-((1-(3-fluoropropyl)azetidin-3-ylidene)methyl)phenyl)-6,7-dihydro-5H-benzo[7]annulene-3-carboxylic acid]
% Degradation At 0.3 μM: 93% | IC50: 0.6 nM

C[C@H]1CC[C@@H](C2=C(c3ccc(C=C4CN(CCCF)C4)cc3)c3ccc(C(=O)O)cc3CCC2)CC1 [Compound 61, 9-(4-((1-(3-fluoropropyl)azetidin-3-ylidene)methyl)phenyl)-8-(cis-4-methylcyclohexyl)-6,7-dihydro-5H-benzo[7]annulene-3-carboxylic acid]
% Degradation At 0.3 μM: 91% | IC50: 0.9 nM
